Results on 10 compounds are retold here after patent publication US7005430B2, “Fused purine derivatives” (Kyowa Hakko Kogyo Co., Ltd., priority 1999, dated 2006).

For one data set, the system named is dd mice. The data set can be described thus: Acute toxicity test (minimum lethal dose). Conditions: po, mortality rate after seven days. It is filed as in vivo. The method, then: A test compound was orally administered to dd mice [male, body weight: 20±1 g (n=3)]. Mortality rate after seven days was measured to determine minimum lethal dose (MLD).
Another data set concerns MIN6 cell. The data set can be described thus: Insulin secretion promoting activity for cultured β cells (MIN6). Type of data set: cell-based. The method, then:
Culture of the MIN6 cells above and insulin secretion test utilizing the MIN6 cells were performed according to the methods described in Diabetologia, vol. 36, pp. 1139–1145, 1993. The effect of a compound on the insulin secretion in the presence of 14.5 mmol/L glucose was determined by measuring insulin amounts in cell culture supernatants collected as follows. MIN6 cells cultured on a 24-well plate were washed twice by using 1 mL of Buffer A (119 mmol/L sodium chloride, 4.74 mmol/L potassium chloride, 2.54 mmol/L calcium chloride, 1.19 mmol/L magnesium sulfate, 1.19 mmol/L potassium dihydrogenphosphate, 10 mmol/L 2-[4-(2-hydroxyethyl)-1-piperazinyl]ethanesulfonic acid, 0.1% bovine serum albumin, pH 7.3) containing 2 mmol/L glucose, and then were incubated in 1 mL of Buffer A containing 2 mmol/L glucose at 37° C. for 45 minutes. After the incubation, the culture supernatant was changed to Buffer A (0.9 mL) containing a test compound at various concentrations and 2 mmol/L glucose, and the cells were further incubated at 37° C. for 15 minutes. The MIN6 cells were stimulated with glucose by the addition of Buffer A (0.1 mL) containing 127 mmol/L glucose to the culture (final glucose concentration: 14.5 mmol/L). After the stimulation, the cells were further incubated at 37° C. for 45 minutes, and then the culture supernatant was collected.
Separately, the effect of a compound on the insulin secretion in the presence of 5 mmol/L glucose was determined by measuring insulin amounts in cell culture supernatants collected as follows. MIN6 cells cultured on a 24-well plate were washed twice by using 1 mL of Buffer A containing 5 mmol/L glucose, and then the culture supernatant was changed to Buffer A (0.9 mL) containing a test compound at various concentrations and 5 mmol/L glucose. Then, the cells were incubated at 37° C. for 45 minutes (final glucose concentration: 5 mmol/L), and the culture supernatant was collected.
After the culture supernatant was diluted with a phosphate buffer containing 1% bovine serum albumin, 0.1% Tween 20, 0.12% disodium ethylenediaminetetraacetate (EDTA) and 0.1% sodium azide, antibody-reactive insulin secreted in the culture supernatant was quantified by enzyme immunoassay or radio immunoassay. The insulin level was indicated as the amount of human insulin (ng/mL). The results are indicated as averages (avg) for 3 to 4 samples with standard erroe values (se).

The test system of another data set is Wistar male rats. As to the kind of experiment: Hyperglycemia suppressing action after glucose loading in normal rats. It is filed as in vivo. Conditions: 14 mg/kg po. The method, then: Wistar male rats (body weight: about 280 g) were used for the experiment after starvation for 24 hours. A test compound was orally administered to the rats 15 minutes before oral administration of glucose (2 g/kg). Blood was collected from a tail vein before the administration of the test compound and 30, 60, 120 and 180 minutes after the glucose loading, and blood glucose level was measured by using a simplified blood sugar level measuring apparatus.

Setting [1] is: in the presence of 5 mmol/L of glucose, drug concentration 10 (mmol/L [sic]), None = 51.2.
[2] abbreviates: in the presence of 14.5 mmol/L of glucose, drug concentration 1.0 μmol/L, None = 148.4.

Structures can show the parent of a compound that is named as a salt.

Broadly, the melting point is the temperature, or range, at which the solid turns liquid.

`CCCN1C(=O)N2C[C@@H](Cc3ccncc3)N=C2c2[nH]c(C3CCCC3)nc21` [Compound 2, (R)-2-Cyclopentyl-7,8-dihydro-8-(4-picolyl)-4-(n-propyl)-1H-imidazo[2,1-i]purin-5(4H)-one D-tartrate]: in the data set on dd mice, the “minimum lethal dose (MLD)” value is listed as “not less than 500 mg/kg”. The figures for the “Insulin secretion amount (ng/ml) avg” value in the data set with MIN6 cell (setting [1]) and in the data set on MIN6 cell (setting [2]) were 86.3 ng/mL and 203.6 ng/mL, respectively. For the same compound, the “Plasma Glucose Concentration” value with Wistar male rats (30 minutes after glucose loading (2 g/kg), Control 169 ± 7.2) turned out to be 144 ± 6.6 mg/dL; in the data set on Wistar male rats (60 minutes after glucose loading (2 g/kg), Control 167 ± 8.0), 156 ± 5.7 mg/dL; with Wistar male rats (120 minutes after glucose loading (2 g/kg), Control 93 ± 4.5), 90 ± 5.7 mg/dL; with Wistar male rats (180 minutes after glucose loading (2 g/kg), Control 83 ± 3.7), 82 ± 4.2 mg/dL; in the data set on Wistar male rats (time 0 (before administration of the test compound), Control 82 ± 3.7), 91 ± 2.1 mg/dL.
`CCOC1=Nc2nc(C(C)(C)C)[nH]c2C2=N[C@H](Cc3ccccc3)CN12` [Compound 70, (R)-8-Benzyl-2-(tert-butyl)-5-ethoxy-7,8-dihydro-1H-imidazo[2,1-i]purine] returned a melting point of 220 to 222 °C. For the same compound, the “Insulin secretion amount (ng/ml) avg” value with MIN6 cell (setting [1]) worked out at 57.0 ng/mL. Also, the “Insulin secretion amount (ng/ml) avg” value in the data set with MIN6 cell (setting [2]) is 174.9 ng/mL.
`CCCN1C(=O)N2C[C@@H](Cc3ccccc3)N=C2c2[nH]c(C3(O)CCCC3)nc21` (as salt: salt) [Compound 40, (R)-8-Benzyl-7,8-dihydro-2-(1-hydroxycyclopentyl)-4-(n-propyl)-1H-imidazo[2,1-i]purin-5(4H)-one] gave a melting point of 187 to 188 °C.
`CCCN1C(=O)N2C[C@@H](Cc3ccccc3)N=C2c2c1nc(Br)n2Cc1ccccc1` [Compound 35, (R)-1,8-Dibenzyl-2-bromo-7,8-dihydro-4-(n-propyl)-1H-imidazo[2,1-i]purin-5(4H)-one] had a melting point of 200 to 206 °C.
With `CSC1=Nc2nc(C(C)(C)C)[nH]c2C2=N[C@H](Cc3ccccc3)CN12` [Compound 73, (R)-8-Benzyl-2-(tert-butyl)-7,8-dihydro-5-methylthio-1H-imidazo[2,1-i]purine], the melting point is 171 to 174 °C. Also, the “Insulin secretion amount (ng/ml) avg” value with MIN6 cell (setting [1]) is 63.3 ng/mL. In addition, the “Insulin secretion amount (ng/ml) avg” value with MIN6 cell (setting [2]) was found to be 176.6 ng/mL.
`CCCN1C(=O)N2C[C@@H](Cc3ccccc3)N=C2c2c1nc(SC)n2COC` [Compound 36, (R)-8-Benzyl-7,8-dihydro-1-methoxymethyl-2-methylthio-4-(n-propyl)-1H-imidazo[2,1-i]purin-5(4H)-one]: the melting point fell in the range of 110 to 112 °C.
`Cl.O=C1N2C[C@@H](Cc3ccc(F)cc3)N=C2c2[nH]c(C3CCCC3)nc2N1CCO` registered a melting point of 165 to 167 °C.
For `CCCN1C(=O)N2C[C@@H](Cc3ccccc3)N=C2c2c1nc(C=O)n2Cc1ccccc1` [Compound 41, (R)-1,8-Dibenzyl-2-formyl-7,8-dihydro-4-(n-propyl)-1H-imidazo[2,1-i]purin-5(4H)-one], the melting point is 184 to 185 °C.
On to `CCCc1nc2c([nH]1)C1=NC(Cc3ccncc3)CN1C(=O)N2CCC` (stereo not drawn) [Compound 8, 7,8-Dihydro-8-(4-picolyl)-2,4-dipropyl-1H-imidazo[2,1-i]purin-5(4H)-one], for which the melting point fell in the range of 270 to 274 °C.
Same read-out and setting: then `CCCN1C(=O)N2C[C@@H](Cc3ccccc3)N=C2c2[nH]c(C3CCN(C(=O)OC(C)(C)C)CC3)nc21.Cl`, with 204 to 205 °C.
